From patent US20260356803A1, “Nicotinamide derivatives” (Board of Regents, The University of Texas System, priority 2024, published 2026)
Like-named read-outs stand apart in the source and are kept apart here.

Assays:
[1] = tested on: S462 cells; assay: Metabolism in S462 cells; format: cell-based, human; conditions: 500 nM compound
Procedure: (§1) We reasoned that 1 and 9 would likely be metabolized to 1-mononucleotide (1-MN) and 9-mononucleotide (9-MN) by NAMPT and then to 1-adenine dinucleotide (1-AD) and 9-adenine dinucleotide (9-AD) by NMNAT1. Thus, we analyzed extracts from cell-free reactions that co-incubate each compound with NAMPT, NMNAT1, PRPP, and ATP by high-resolution mass spectrometry to identify these putative metabolites based on exact mass. […] To test whether these compound metabolites were also produced in cells, we analyzed metabolic extracts from cells treated with either 1 or 9.
Prior to the experiment, cells were cultured in low-Nam DMEM for at least 1 passage (3 days) to deplete intracellular Nam. 15,000 cells were plated in a 96-well plate with 100 μL low-Nam media. At appropriate time points, 500 nM 1 or 9, or equal volume of vehicle (DMSO) were added using TECAN. 200 μL of acetonitrile with 0.1% formic acid were added to the assayed wells. For the 0-hour time point, compound or vehicle was added after the addition of acetonitrile and formic acid. […] The supernatants were filtered through 0.2 μm PVDF filters and analyzed by LC-MS/TOF. […]
(§2) Data analysis for TOF data was performed using SCIEX MultiQuant software version 3.0.3. For each of the compounds monitored, the theoretical exact m/z was calculated. […]

[2] = tested on: NAMPT and NMNAT1; assay: Cell-free metabolism by NAMPT and NMNAT1; format: biochemical; conditions: role: substrate, 200 μM compound, NMNAT1, 0.4 mM PRPP, 2.5 mM ATP, 37 °C
Procedure: as §1
A reaction mixture containing 50 mM Tris pH 8, 0.4 mM PRPP, 2.5 mM ATP, 12 mM MgCl2, 0.02% BSA, 1 μM NAMPT, 100 nM NMNAT1 and 200 μM compound 9 or 1 was incubated at 37 °C. Fifty microliter aliquots were quenched at the indicated time points by adding two volumes of acetonitrile with 0.1% formic acid and vortexing for 15 seconds. After incubation for ten minutes at room temperature, samples were centrifuged at 13,200 rpm for 5 minutes. The supernatants were filtered through 0.2 μm PVDF filters (Sigma #SLGV004SL) and analyzed by LC-MS/TOF. […]
as §2

[3] = Mouse pharmacokinetics in plasma and brain; format: in vivo, CD1 mice; conditions: for Kp / Cmax: mouse; for Kp: read-out: brain to blood exposure (AUCBrain/AUCplasma)
Procedure: GBM, which is reported to be a potential target for these compounds, is an intracranial tumor, and thus, effective drugs must cross the blood-brain barrier. Therefore, in addition to plasma, we analyzed compound and metabolite levels in mouse brain. Following the administration of a single 5 mg/kg intravenous (IV) injection of either 1 or 9, we quantified the levels of each compound in both plasma and brain. […] The brain to blood exposure, represented by the ratio of the area under the curve between brain and plasma (AUCBrain/AUCplasma), was 3.45 for 1 and 2.85 for 9.
Next, we analyzed the levels of metabolites that result from the metabolism of 1 and 9 through the NAD salvage pathway.
MS conditions were identical. The HPLC conditions were as follows: Solvent A: water including 0.1% formic acid (LC-MS) grade. Solvent B: Acetonitrile including %0.1 formic acid (LC-MS) grade. Gradient condition was 0-3 min: 3% B, 17 min: 60.5% B, 17.1 min Flow to 0.25 mL/min, 17 to 20 min hold 95% B: 20.5-25 min hold 3% B, 24.5 flow to 0.2 mL/min. Total run time: 25 mins.
Data analysis for TOF data was performed using SCIEX MultiQuant software version 3.0.3. For each of the compounds monitored, the theoretical exact m/z was calculated. A range of ±10 ppm was extracted around the theoretical mass and used to create an analytical method in MultiQuant. Extracted areas for parent compounds 1 and 9 in S462 cells and mice were normalized to the internal standard tolbutamide, while parent compounds 1 and 9 in cell-free reactions and all metabolite levels were presented as peak areas without normalization.
Six week old female CD1 mice (Charles River, Wilmington, MA) were dosed with 5 mg/kg 1 or 9 formulated as 5% DMSO/10% PEG400/85% D5W (5% dextrose in water, pH 7.4) in a volume of 0.2 ml/mouse. Animals were euthanized by inhalation overdose of CO2 at various points postdose. Blood was collected by cardiac puncture into K2EDTA tubes and kept on ice until they were spun at 9600×g for 10 min at 4 °C for plasma. Brains were harvested, rinsed briefly with PBS to remove surface adhering blood, weighed and then snap frozen in liquid nitrogen before storing along with plasma at −80 °C until processing. Brains were homogenized in a volume of PBS equal to 3× their weight in g. One hundred microliters of plasma or brain homogenate was mixed with […] of methanol containing 0.15% formic acid and 37.5 ng/ml tolbutamide internal standard. Samples were vortexed for 15 seconds, incubated at RT for 10 min and then spun at 16,100×g. The resulting supernatant was spun a second time and then filtered through 0.2 μm PVDF filters and analyzed by LC-MS. Samples were quantitated in comparison to a standard curve prepared by spiking 1 or 9 into blank plasma or brain homogenate. The limit of quantitation was set as the lowest point on the standard curve that upon back-calculation was within 20% of the nominal value and was at least three-fold above the average peak area observed for blank plasma or brain. The LOQ for 1 was 1 ng/ml in plasma and 5 ng/ml in brain. The LOQ for 9 was 5 ng/ml in plasma and 10 ng/ml for brain homogenate. Brain concentrations were adjusted to ng/g wet tissue weight and then an estimate was made of drug in brain vasculature using the measured plasma concentration and subtracted from the measured brain concentration.^30 Pharmacokinetic parameters were calculated using the noncompartmental analysis tool with sparse sampling in Phoenix WinNonlin (Certara Corp, Princeton, NJ).

[4] = brain, 5 mg/kg IV single dose, read-out: brain Cmax
[5] = brain, 5 mg/kg IV, assuming brain density of 1 g/ml, read-out: brain Cmax
[6] = plasma, 5 mg/kg IV single dose, molar, read-out: plasma maximum concentration (Cmax)
[7] = plasma, 5 mg/kg IV single dose, read-out: plasma maximum concentration (Cmax)

SMILES: O=C(Nc1cccnc1)c1cccs1 [Compound 1, N-(pyridin-3-yl)thiophene-2-carboxamide]
- levels of parent compound over time in cells [1]: time-dependent depletion
- levels of parent compound over time [2]: time-dependent decrease
- brain penetration ([3]; 5 mg/kg IV): brain-penetrant
- persistence in brain versus plasma ([3]; 5 mg/kg IV): persisted longer in the brain than in the plasma
- Kp ([3]; brain, 5 mg/kg IV): 3.45
- Cmax [3, 4]: 2220 ng/g
- Cmax [3, 5]: 10.8 µM
- Cmax [3, 6]: 5.65 µM
- Cmax [3, 7]: 1160 ng/mL
- rapidly cleared from plasma by ([3]; plasma, 5 mg/kg IV): ≤ 90 min

SMILES: O=C(Nc1cccs1)c1cccnc1 [Compound 9, N-(Thiophen-2-yl)nicotinamide]
- levels of parent compound over time in cells [1]: time-dependent depletion
- levels of parent compound over time [2]: time-dependent decrease
- brain penetration ([3]; 5 mg/kg IV): brain-penetrant
- persistence in brain versus plasma ([3]; 5 mg/kg IV): persisted longer in the brain than in the plasma
- Kp ([3]; brain, 5 mg/kg IV): 2.85
- Cmax [3, 4]: 1600 ng/g
- Cmax [3, 5]: 7.8 µM
- Cmax [3, 6]: 23.7 µM
- Cmax [3, 7]: 4830 ng/mL
- rapidly cleared from plasma by ([3]; plasma, 5 mg/kg IV): ≤ 90 min
